Key:
[1] = tested on: human MDR1 P-gp; test: Assay D: efflux in MDCK cells transfected with the human MDR1 gene; type: in vitro ADME, canine; settings: dog; MDCK-MDR1, pH 7.4, 37° C.; read-out: Assay D: MDCK efflux ratio (BA/AB)
Method: The MDCK assay provides information on the potential of a compound to pass the blood brain barrier. Permeability measurements across polarized, confluent MDCK-MDR1 cell monolayers grown on permeable filter supports are used as an in vitro absorption model: apparent permeability coefficients (PE) of the compounds across the MDCK-MDR1 cell monolayers are measured (pH 7.4, 37° C.) in apical-to-basal (AB) and basal-to-apical (BA) transport direction.
The AB permeability (PEAB) represents drug absorption from the blood into the brain and the BA permeability (PEBA) drug efflux from the brain back into the blood via both, passive permeability as well as active transport mechanisms mediated by efflux and uptake transporters that are expressed on the MDCK-MDR1 cells, predominantly by the overexpressed human MDR1 P-gp. Identical or similar permeabilities in both transport directions indicate passive permeation, vectorial permeability points to additional active transport mechanisms. Higher PEBA than PEAB (PEBA/PEAB>5) indicates the involvement of active efflux mediated by MDR1 P-gp, which might compromises the goal to achieve sufficient brain exposure. Therefore this assay provides valuable support for selection of compounds applicable for further in vivo testing. High permeability not limited by efflux at the blood brain barrier is a favourable characteristic for compounds that are to be used for drugs acting primarily in the CNS
D. Assessment of Efflux in Madin-Darby Canine Kidney (MDCK) Cells Transfected with the Human MDR1 Gene
Apparent permeability coefficients (PE) of the compounds across the MDCK-MDR1 cell monolayers are measured (pH 7.4, 37° C.) in apical-to-basal (AB) and basal-to-apical (BA) transport direction. AB permeability (PEAB) represents drug absorption from the blood into the brain and BA permeability (PEBA) drug efflux from the brain back into the blood via both passive permeability as well as active transport mechanisms mediated by efflux and uptake transporters that are expressed on the MDCK-MDR1 cells, predominantly by the overexpressed human MDR1 P-gp. The compounds are assigned to permeability/absorption classes by comparison of the AB permeabilities with the AB permeabilities of reference compounds with known in vitro permeability and oral absorption in the human. Identical or similar permeabilities in both transport directions indicate passive permeation, vectorial permeability points to additional active transport mechanisms. Higher PEBA than PEAB indicates the involvement of active efflux mediated by MDR1 P-gp. Active transport is concentration-dependently saturable.
MDCK-MDR1 cells (1-2×10 e5 cells/1 cm2 area) are seeded on filter inserts (Costar transwell polycarbonate or PET filters, 0.4 μm pore size) and cultured (DMEM) for 7 days. Subsequently, the MDR1 expression is boosted by culturing the cells with 5 mM sodium butyrate in full medium for 2 days. Compounds are dissolved in appropriate solvent (like DMSO, 1-20 mM stock solutions). Stock solutions are diluted with HTP-4 buffer (128.13 mM NaCl, 5.36 mM KCl, 1 mM MgSO4, 1.8 mM CaCl2, 4.17 mM NaHCO3, 1.19 mM Na2HPO4×7H2O, 0.41 mM NaH2PO4×H2O, 15 mM HEPES, 20 mM glucose, 0.25% BSA, pH 7.4) to prepare the transport solutions (0.1-300 μM compound, final DMSO<=0.5%). The transport solution (TL) is applied to the apical or basolateral donor side for measuring A-B or B-A permeability (3 filter replicates), respectively. The receiver side contains the same buffer as the donor side. Samples are collected at the start and end of experiment from the donor and at various time intervals for up to 2 hours also from the receiver side for concentration measurement by HPLC-MS/MS or scintillation counting. Sampled receiver volumes are replaced with fresh receiver solution.

[2] = Assay C: metabolic stability in human liver microsomes (Human MST); type: in vitro ADME; settings: pH 7.6, pooled human liver microsomes, 37° C., read-out: Assay C: Human MST t1/2
Method: C. Assessment of Metabolic Stability in Human Liver Microsomes (Human MST)
The metabolic stability of the compounds according to the invention may be investigated as follows:
The metabolic degradation of the test compound is assayed at 37° C. with pooled human liver microsomes. The final incubation volume of 100 μL per time point contains TRIS buffer pH 7.6 at room temperature (0.1 M), MgCl2 (5 mM), microsomal protein (1 mg/mL) and the test compound at a final concentration of 1 μM. Following a short pre-incubation period at 37° C., the reactions are initiated by addition of beta-nicotinamide adenine dinucleotide phosphate, reduced form (NADPH, 1 mM), and terminated by transferring an aliquot into solvent after different time points. After centrifugation (10000 g, 5 min), an aliquot of the supernatant is assayed by LC-MS/MS for the amount of parent compound. The half-life (t1/2) is determined by the slope of the semi-logarithmic plot of the concentration-time profile.

[3] = molecular target: T1, OX2R (Homo sapiens, UniProt O43614); settings: cited from earlier work
T1 sequence (O43614 1-444): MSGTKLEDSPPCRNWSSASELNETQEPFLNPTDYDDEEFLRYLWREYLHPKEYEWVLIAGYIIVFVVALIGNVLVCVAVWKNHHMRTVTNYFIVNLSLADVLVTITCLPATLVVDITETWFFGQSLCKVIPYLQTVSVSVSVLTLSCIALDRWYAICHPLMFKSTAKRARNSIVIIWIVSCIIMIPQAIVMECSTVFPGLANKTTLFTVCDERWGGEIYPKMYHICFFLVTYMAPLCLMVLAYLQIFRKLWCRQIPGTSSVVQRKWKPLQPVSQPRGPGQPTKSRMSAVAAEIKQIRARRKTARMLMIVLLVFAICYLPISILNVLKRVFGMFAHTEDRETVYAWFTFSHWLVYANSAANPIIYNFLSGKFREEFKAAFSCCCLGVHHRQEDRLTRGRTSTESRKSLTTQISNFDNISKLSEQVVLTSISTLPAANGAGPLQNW

[4] = molecular target: T2, human Orexin 1 receptor (Homo sapiens, UniProt O43613); test: Assay A: in vitro testing of OX1R potency, OX1R IP1; type: cell-based; settings: for Kb: 0.5 nM Orexin A concentration; for OX2R Kb/OX1R Kb: selectivity ratio of Assay B and Assay A Kb
T2 construct: stably expressing the full-length human Orexin 1 receptor; expressed in transfected cells; host or cells: CHO-K1 (CHO-K1/hOx1), co-expressing aequorin
T2 sequence (O43613 1-425): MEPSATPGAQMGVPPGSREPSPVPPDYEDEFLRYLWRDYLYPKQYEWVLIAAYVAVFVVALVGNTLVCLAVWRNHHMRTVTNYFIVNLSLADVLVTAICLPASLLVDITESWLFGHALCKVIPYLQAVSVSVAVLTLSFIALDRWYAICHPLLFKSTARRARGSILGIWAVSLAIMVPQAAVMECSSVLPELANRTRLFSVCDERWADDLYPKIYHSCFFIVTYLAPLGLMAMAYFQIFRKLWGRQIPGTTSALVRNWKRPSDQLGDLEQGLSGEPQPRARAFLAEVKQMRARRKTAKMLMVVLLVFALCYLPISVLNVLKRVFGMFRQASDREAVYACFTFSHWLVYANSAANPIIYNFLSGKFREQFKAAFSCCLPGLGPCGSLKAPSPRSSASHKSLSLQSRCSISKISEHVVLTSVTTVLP
Excerpt: (§1) Activation of the orexin receptors expressed in cell lines results in an increase in intracellular IP3 concentration. IP1, a downstream metabolite of IP3, accumulates in cells following receptor activation and is stable in the presence of LiCl. Using Homogeneous Time-Resolved Fluorescence technology with Lumi4-Tb cryptate (commercially available from Cisbio Bioassay.) and a suitable fluorescence plate reader. This functional response is detectable and quantifiable as described in Trinquet et al. Anal. Biochem. 2006, 358, 126-135, Degorce et al. Curr. Chem. Genomics 2009, 3, 22-32. This technique is used to characterize pharmacological modification of the orexin receptors.
A. In Vitro Testing of OX1R Potency: OX1R IP1
IP1 measurements are performed in CHO-K1 cells stably expressing the full-length human Orexin 1 receptor and the aequorin photoprotein. Cells are cultivated in Ham's nutrient mixture F12 medium with 10% fetal calf serum, in a 37° C., 95% humidity and 5% CO2 incubator. The CHO-K1/hOx1 cell mass is expanded to larger cell numbers. The cells are obtained as frozen cells in cryo-vials and stored until use at −150° C. The viability of the cells after thawing is >90%. In preparation for the assay, 24 hours before the assay, the cells are thawed at 37° C. and immediately diluted with cell culture medium. After centrifugation, the cell pellet is re-suspended in medium and then distributed into the assay plates with a density of 10000 cells/25 μL per well. The plates are incubated for one hour at room temperature to reduce edge effects before they are incubated for 24 hours at 37° C./5% CO2. Compounds are prepared by an 8-point serial dilution in DMSO and a final dilution step into assay buffer (HBSS with 20 mM HEPES, 0.1% BSA and 50 mM LiCl, pH 7.4) to ensure a final DMSO concentration of 1% in the assay.
On the day of the assay, cells in the plate are washed twice with 60 μL assay buffer (20 μL buffer remained in the wells after washing), followed by adding 5 μL per well of compounds diluted in assay buffer. After 15 minutes of incubation at room temperature 5 μL per well of Orexin A peptide (final concentration: 0.5 nM, and/or 50 nM) dissolved in assay buffer is added to the assay plate. The assay plate is incubated for 60 minutes at 37° C. Then 5 μl per well of Anti-IP1-Cryptate Tb solution and 5 μl per well of IP1-d2 dilution are added and the plate is incubated for a further 60 minutes light protected at room temperature. The emissions at 615 nm and 665 nm (Excitation wavelength: 320 nm) are measured using an EnVision reader (PerkinElmer). The ratio between the emission at 665 nm and 615 is calculated by the reader.
(§2) 8-point four parametric non-linear curve fitting and determination of IC50 values and Hill slopes is performed using a regular analysis software e.g. AssayExplorer (Accelrys). In order to establish an agonist concentration independent parameter, Kb values are calculated using the following equation: IC50/((2+(A/EC50)^n)^1/n−1) (with A=concentration agonist, EC50=EC50 agonist, n=Hill slope agonist) (see P. Leff, I. G. Dougall, Trends Pharmacol. Sci. 1993, 14(4),110-112).

[5] = molecular target: T3, human orexin 2 receptor (Homo sapiens, UniProt O43614); test: Assay B: in vitro testing of OX2R potency, OX2R IP1; type: cell-based; settings: 0.5 nM Orexin A concentration
T3 construct: stably expressing the full-length human orexin 2 receptor; expressed in transfected cells; host or cells: CHO-K1 (CHO-K1/hOx2), co-expressing aequorin
T3 sequence (O43614 1-444): T1 sequence (O43614 1-444)
Excerpt: as §1
B. In Vitro Testing of OX2R Potency: OX2R IP1
IP1 measurements are performed in CHO-K1 cells stably expressing the full-length human orexin 2 receptor and the aequorin photoprotein. Cells are cultivated in Ham's nutrient mixture F12 medium with 10% fetal calf serum, in a 37° C., 95% humidity and 5% CO2 incubator. The CHO-K1/hOx2 cell mass is expanded to larger cell numbers. The cells are obtained as frozen cells in cryo-vials and stored until use at −150° C. The viability of the cells after thawing is >90%. In preparation for the assay, 24 hours before the assay, the cells are thawed at 37° C. and immediately diluted with cell culture medium. After centrifugation, the cell pellet is resuspended in medium and then distributed into the assay plates with a density of 5000 cells/25 μper well. The plates are incubated for one hour at room temperature to reduce edge effects before they are incubated for 24 hours at 37° C./5% CO2. Compounds are prepared by a 8-point serial dilution in DMSO and a final dilution step into assay buffer (HBSS with 20 mM HEPES, 0.1% BSA and 50 mM LiCl, pH 7.4) to ensure a final DMSO concentration of 1% in the assay. On the day of the assay, cells in the plate are washed twice with 60 μL assay buffer (20 μL buffer remained in the wells after washing), followed by adding 5 μL per well of compounds diluted in assay buffer. After 15 minutes of incubation at room temperature 5 μL per well of Orexin A peptide (final concentration: 0.5 nM) dissolved in assay buffer is added to the assay plate. The assay plate is incubated for 60 minutes at 37° C. Then 5 μl per well of Anti-IP1-Cryptate Tb solution and 5 μl per well of IP1-d2 dilution are added to all well of the plate and the plate is incubated for a further 60 minutes light protected at room temperature. The emission at 615 nm and 665 nm (Excitation wavelength: 320 nm) are measured using an EnVision reader (PerkinElmer). The ratio between the emission at 665 nm and 615 is calculated by the reader.
as §2

Compound | efflux ratio [1] | half-life at 1 μM [2] | OX2R pIC50 ([3]; as described in WO2016/034882, Table 3) | IC50 ([3]; corresponds to pIC50 of WO2016/034882, Table 3) | Kb [4] | OX2R Kb/OX1R Kb [4] | Kb [5]
CC[C@@H](CNc1ncc(C(F)(F)F)cn1)N(C)C(=O)c1c(F)cccc1-n1nccn1 [Ex 91 in WO2016/ 034882] | < 3 | > 2.17 h | < 5.1 | ≥ 7950 nM |  |  | 
C[C@@H](CNc1ncc(C(F)(F)F)cn1)N(CC(F)F)C(=O)c1cc(F)cc(F)c1-n1nccn1 [Example 1] | < 3 | > 2.17 h |  |  | 1.17 nM | 214 | 251 nM
C[C@@H](CNc1ncc(C(F)(F)F)cn1)N(CC(F)F)C(=O)c1c(F)cccc1-c1ncccn1 [Example 5] | < 3 | > 2.17 h |  |  | 0.67 nM | 213 | 143 nM
C[C@@H](CNc1ncc(C(F)(F)F)cn1)N(CC(F)F)C(=O)c1cccc(F)c1-n1nccn1 [Example 2] | < 3 | > 2.17 h |  |  | 0.63 nM | 138 | 87.1 nM
C[C@@H](CNc1ncc(C(F)(F)F)cn1)N(CC(F)F)C(=O)c1cccc(F)c1-c1ncccn1 [Example 3] | < 3 | > 2.17 h |  |  | 0.19 nM | 568 | 108 nM
C[C@@H](CNc1ncc(C(F)(F)F)cn1)N(CC(F)F)C(=O)c1cc(F)ccc1-c1ncccn1 [Example 4] | < 3 | > 2.17 h |  |  | 0.42 nM | 169 | 70.8 nM
CC[C@@H](CNc1ncc(C(F)(F)F)cn1)N(C)C(=O)c1nc(C)ccc1-c1ncccn1 [Ex 84 in WO2016/ 034882, reference compound] | < 3 |  |  |  |  |  | 

From patent US11324724B2, “N-(2,2-difluoroethyl)-N-[(pyrimidinylamino)propanyl]arylcarboxamides” (Boehringer Ingelheim International GmbH, priority 2017, dated 2022)
